# Source: PubChem BioAssay AID2060622 (Molecular Pharmacology Branch, DTP, NCI, 2025)
# Test system: 242566-281-R-J2-PDC complex spheroid viability
# Assay: Anticancer human tumor 242566-281-R-J2-PDC patient-derived pancreatic carcinoma cell line growth inhibition [CLK]
# Conditions: for IC50: curve of first compound; for viability, T/C: stronger effect = lower value
# From the text: A high-throughput screen of multi-cell type tumor spheroids was designed to identify active combinations of […] and targeted small molecules. Complex spheroids include a stromal component modeled by human endothelial cells (HUVEC) and fibroblasts modeled by human mesenchymal stem cells (MSCs). The concentration ranges selected for each drug and investigational agent were based upon clinically achievable concentrations if the clinical Cmax of the agent was known.
# Compounds. The drugs and investigational agents: cirtuvivint (SM08502; NSC835563), CC-671 (NSC850746), vemurafenib (NSC761431), tapotoclax (NSC804041), sotorasib (NSC818433), adagrasib (NSC831453), MRTX-1133 (NSC836407), BAY2416964 (NSC825713), copanlisib (NSC816437), inavolisib (NSC800729), abemaciclib (NSC768073), osimertinib (NSC779217), entinostat (NSC756642), eltanexor (KPT-8602, NSC794443), venetoclax (NSC766270), ceralasertib (NSC777638), bortezomib (NSC756655), olaparib (NSC753686), talazoparib (NSC767125), alisertib (NSC759677), peposertib (NSC802822), gemcitabine (NSC613327), 5-fluorouracil (NSC19893), SN-38 (NSC673596), oxaliplatin (NSC266046), paclitaxel (NSC125973), and doxorubicin (NSC123127), were obtained from the National Cancer Institute (NCI) Developmental Therapeutics Program Chemical Repository. The FDA-approved anticancer drug set is available from the Developmental Therapeutics Program at https://dtp.cancer.gov/organization/dscb/obtaining/available plates.htm. […] The stock solutions were prepared in dimethyl sulfoxide (DMSO, Sigma-Aldrich, St. Louis, MO, cat. D2650), except for the platinum complexes which were prepared in saline (Quality Biological, Gaithersburg, MD, cat. 114-055-101), at 800-fold the tested concentration and stored at -70 degrees C prior to their use. All drugs and investigational agents were tested over a range starting from a high concentration at or near the clinical Cmax and decreasing in half-log increments. If the clinical Cmax for an agent had not been determined, the highest concentration tested was 10 microM.
# Cell Culture. All cells were maintained in an incubator at 37 degrees C and 5% CO2 with 95% humidity. The PDC lines were cultured according to standard operating procedures established by the NCI PDMR. Briefly, all PDCs were thawed and cultured in Matrigel-coated flasks prepared with a working solution of 1X Ham's F-12 nutrient mix, without supplementation (Invitrogen, Waltham, MA, cat. 11765054), 100 U/mL penicillin-streptomycin (Invitrogen, cat. 15140122), and 2.5% Matrigel (Corning Inc., Corning, NY, cat. 354248) for the first three passages. The 947758-054-R-J2-PDC line was cultured in 6B/Colon 1A media, which includes advanced DMEM/F-12 (Thermo Fisher Scientific, cat. 12634028), 10 mM HEPES (Thermo Fisher Scientific, cat. 15630080), 1X GlutaMAX supplement (Thermo Fisher Scientific, cat. 35050061), 0.1 mg/mL primocin (InvivoGen, cat. ant-pm-2), 10% defined fetal bovine serum, heat inactivated (HyClone Laboratories Inc., cat. SH30070.03HI), 1.25 mM N-Acetyl-L-cysteine (Sigma-Aldrich, cat. A9165), 10 mM nicotinamide (Sigma-Aldrich, cat. N0636), 1X B-27 supplement (Thermo Fisher Scientific, cat. 17504044), 1X N-2 supplement (Thermo Fisher Scientific, cat. 17502048), and 10 microM Y-27632 dihydrochloride (Tocris Bioscience, cat. 1254). The 876862-298-R-J1-PDC was cultured in 6E media, which includes all 6B/Colon 1A media components plus 50% L-WRN conditioned media (ATCC, cat. CRL-3276), 50 ng/mL recombinant human EGF recombinant protein (hEGF; Thermo Fisher Scientific, cat. PHG0311), 10 ng/mL recombinant human fibroblast growth factor 10 (hGFG-10; PeproTech, cat. 100-26), 1 ng/mL recombinant human fibroblast growth factor 2 (hFGF-2; PeproTech, cat. 100-18B), and 1 µM prostaglandin E2 (PGE2; Tocris, cat. 2296). The 227483-062-R1-J1-PDC line was cultured in Panc media, containing all 6E components except hFGF-2, with the addition of 500 nM SB-431542 (Selleckchem, cat. S1067) and 10 nM gastrin (Tocris, cat. 3006). […]
# 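Note: spheroids exposed to compounds for 7 days before readout.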
# 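Throughout, for viability, T/C: 100% = DMSO vehicle control wells.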
structure (smiles),measurement,setting,value
C=C(F)C(=O)N1CCN(c2nc(OCC3CCCN3C)nc3c2CCN(c2cccc4cccc(Cl)c24)C3)CC1CC#N (configuration not stated) + CN1CCN(c2cc(C(=O)Nc3cc4cc(-c5cnn(C)c5)ccc4cn3)ccn2)CC1,IC50,second compound 0.0316 µM,4990 nM
same,IC50,second compound 0.1 µM,4260 nM
same,IC50,second compound 0.316 µM,< 31.6 nM
same,IC50,second compound 1 µM,< 31.6 nM
same,IC50,second compound 3.16 µM,< 31.6 nM
same,IC50,second compound 10 µM,< 31.6 nM
same,"viability, T/C","second compound 0.0316 µM, first compound 0.0316 µM",84.6%
same,"viability, T/C","second compound 0.0316 µM, first compound 0.1 µM",115%
same,"viability, T/C","second compound 0.0316 µM, first compound 0.316 µM",104%
same,"viability, T/C","second compound 0.0316 µM, first compound 1 µM",114%
same,"viability, T/C","second compound 0.0316 µM, first compound 3.16 µM",82.7%
same,"viability, T/C","second compound 0.0316 µM, first compound 10 µM",0.15%
same,"viability, T/C","second compound 0.1 µM, first compound 0.0316 µM",103%
same,"viability, T/C","second compound 0.1 µM, first compound 0.1 µM",95.9%
same,"viability, T/C","second compound 0.1 µM, first compound 0.316 µM",90.9%
same,"viability, T/C","second compound 0.1 µM, first compound 1 µM",90.2%
same,"viability, T/C","second compound 0.1 µM, first compound 3.16 µM",67.7%
same,"viability, T/C","second compound 0.1 µM, first compound 10 µM",0.87%
same,"viability, T/C","second compound 0.316 µM, first compound 0.0316 µM",42.9%
same,"viability, T/C","second compound 0.316 µM, first compound 0.1 µM",38.7%
same,"viability, T/C","second compound 0.316 µM, first compound 0.316 µM",50.4%
same,"viability, T/C","second compound 0.316 µM, first compound 1 µM",41.3%
same,"viability, T/C","second compound 0.316 µM, first compound 3.16 µM",25.2%
same,"viability, T/C","second compound 0.316 µM, first compound 10 µM",0.12%
same,"viability, T/C","second compound 1 µM, first compound 0.0316 µM",4.94%
same,"viability, T/C","second compound 1 µM, first compound 0.1 µM",4.71%
same,"viability, T/C","second compound 1 µM, first compound 0.316 µM",4.65%
same,"viability, T/C","second compound 1 µM, first compound 1 µM",4.68%
same,"viability, T/C","second compound 1 µM, first compound 3.16 µM",3.14%
same,"viability, T/C","second compound 1 µM, first compound 10 µM",0.13%
same,"viability, T/C","second compound 3.16 µM, first compound 0.0316 µM",7.96%
same,"viability, T/C","second compound 3.16 µM, first compound 0.1 µM",8.51%
same,"viability, T/C","second compound 3.16 µM, first compound 0.316 µM",7.38%
same,"viability, T/C","second compound 3.16 µM, first compound 1 µM",6.75%
same,"viability, T/C","second compound 3.16 µM, first compound 3.16 µM",4.99%
same,"viability, T/C","second compound 3.16 µM, first compound 10 µM",0.12%
same,"viability, T/C","second compound 10 µM, first compound 0.0316 µM",2.22%
same,"viability, T/C","second compound 10 µM, first compound 0.1 µM",2.75%
same,"viability, T/C","second compound 10 µM, first compound 0.316 µM",2.19%
same,"viability, T/C","second compound 10 µM, first compound 1 µM",1.43%
same,"viability, T/C","second compound 10 µM, first compound 3.16 µM",0.37%
same,"viability, T/C","second compound 10 µM, first compound 10 µM",0.24%
